Assay [1] addresses T1, full-length beta-Catenin (Uniprot ID P35222) (Homo sapiens, UniProt P35222).
T1 construct: 10 nM full-length beta-Catenin (Uniprot ID P35222)
T1 sequence (P35222 1-781): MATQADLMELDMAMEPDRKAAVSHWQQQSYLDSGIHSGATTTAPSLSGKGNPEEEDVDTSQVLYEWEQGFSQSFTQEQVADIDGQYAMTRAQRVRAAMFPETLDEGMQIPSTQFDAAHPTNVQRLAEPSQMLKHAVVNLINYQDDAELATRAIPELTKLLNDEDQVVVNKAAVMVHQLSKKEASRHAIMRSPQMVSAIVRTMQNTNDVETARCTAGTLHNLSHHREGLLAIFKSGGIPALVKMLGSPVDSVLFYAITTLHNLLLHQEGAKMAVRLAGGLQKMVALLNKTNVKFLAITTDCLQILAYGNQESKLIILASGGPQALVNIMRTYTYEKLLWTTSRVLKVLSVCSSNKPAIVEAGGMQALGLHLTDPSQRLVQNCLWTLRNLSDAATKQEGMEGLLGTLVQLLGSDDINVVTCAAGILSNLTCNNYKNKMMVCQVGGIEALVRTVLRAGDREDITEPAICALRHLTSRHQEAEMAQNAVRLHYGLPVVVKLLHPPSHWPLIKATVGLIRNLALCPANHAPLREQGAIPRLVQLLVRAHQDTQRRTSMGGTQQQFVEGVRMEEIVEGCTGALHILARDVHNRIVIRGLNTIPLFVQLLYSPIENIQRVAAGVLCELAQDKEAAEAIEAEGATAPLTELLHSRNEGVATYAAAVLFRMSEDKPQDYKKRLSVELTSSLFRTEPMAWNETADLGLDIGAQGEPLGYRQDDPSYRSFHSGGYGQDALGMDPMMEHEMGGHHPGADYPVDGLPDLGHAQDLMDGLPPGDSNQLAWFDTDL
In words: Fluorescence polarization IC50 (beta-catenin / 5FAM-TCF4 10-53 competition). The format is binding. To be noted: fluorescence polarization; read-out: beta-Catenin FP IC50.

Assay [2] deals with T2, beta-catenin/TCF4 engagement (Homo sapiens, UniProt P35222).
T2 construct: expressed in transfected cells; host or cells: HEK293
T2 sequence (P35222 1-781): T1 sequence (P35222 1-781)
In words: Nano-BRET target engagement assay (B-cat-Halo & TCF4-Luc in HEK293 cells). The settings on record: read-out: NanoBRET Abs IC50. The class given is cell-based.

For 13 compounds, IC50 results are on record in patent publication US20240116985A1, “STAPLED PEPTIDES AND METHODS THEREOF” (priority 2020, published 2024).

SMILES strings stand for the structures. Where two headings read alike, the source gives them in different places.

With `CC(=O)N1CCC[C@]12CC=CCCCC1(CCCC=CCCCOC(=O)N3CC[C@@](C(=O)N[C@@H](Cc4ccsc4)C(=O)N[C@@H](Cc4csc5ccccc45)C(=O)N[C@@H](CC(C)(C)C)C(N)=O)(C3)NC(=O)[C@H](CC(C)C)NC(=O)[C@H](Cc3ccccc3)NC(=O)[C@H](C)NC(=O)[C@H](CCC(N)=O)NC(=O)[C@H](Cc3cccc(C(=O)O)c3)NC(=O)[C@H](CC(=O)O)NC1=O)NC(=O)[C@H](CC(C)(C)C)NC(=O)[C@H](CC(=O)O)NC2=O` (stereo partly drawn) [I-2192, Ac-PL3-Asp-Npg-B5-Asp-3COOHF-Gln-Ala-Phe-Leu-PyrS2-3Thi-BztA-Npg-NH2], the IC50 in assay [1] was found to be 0.022 µM; in assay [2], 16.1 µM.
On to `CCCC[C@@H]1NC(=O)[C@H](Cc2cccc(C(=O)O)c2)NC(=O)[C@H](CC(=O)O)NC(=O)C2(CCCC=CCCCOC(=O)N3CC[C@@](C(=O)N[C@@H](Cc4ccsc4)C(=O)N[C@@H](Cc4csc5ccccc45)C(=O)N[C@@H](CC(C)(C)C)C(N)=O)(C3)NC(=O)[C@H](CC(C)C)NC(=O)[C@H](Cc3ccccc3)NC(=O)[C@H](C)NC1=O)CCCC=CC[C@]1(CCCN1C(C)=O)C(=O)N[C@@H](CC(=O)O)C(=O)N[C@@H](CC(C)(C)C)C(=O)N2` (stereo partly drawn) [I-2193, Ac-PL3-Asp-Npg-B5-Asp-3COOHF-nLeu-Ala-Phe-Leu-PyrS2-3Thi-BztA-Npg-NH2], for which the IC50 came out at 0.164 µM in assay [1] and 39.9 µM in assay [2].
The corresponding values for `CC(=O)N1CCC[C@]12CC=CCCCC1(CCCC=CCCCOC(=O)N3CC[C@@](C(=O)N[C@@H](Cc4ccsc4)C(=O)N[C@@H](Cc4csc5ccccc45)C(=O)N[C@@H](CC(C)(C)C)C(N)=O)(C3)NC(=O)[C@H](CC(C)C)NC(=O)[C@H](Cc3ccccc3)NC(=O)[C@H](C)NC(=O)C(C)(C)NC(=O)[C@H](Cc3cccc(C(=O)O)c3)NC(=O)[C@H](CC(=O)O)NC1=O)NC(=O)[C@H](CC(C)(C)C)NC(=O)[C@H](CC(=O)O)NC2=O` (stereo partly drawn) [I-2194, Ac-PL3-Asp-Npg-B5-Asp-3COOHF-Aib-Ala-Phe-Leu-PyrS2-3Thi-BztA-Npg-NH2] are 0.091 µM and 8.8 µM.
Taken in the same sequence, the figures for `CC(=O)N1CCC[C@]12CC=CCCCC1(CCCC=CCCCOC(=O)N3CC[C@@](C(=O)N[C@@H](Cc4ccsc4)C(=O)N[C@@H](Cc4csc5ccccc45)C(=O)N[C@@H](CC(C)(C)C)C(N)=O)(C3)NC(=O)[C@H](CC(C)C)NC(=O)[C@H](Cc3ccccc3)NC(=O)[C@H](C)NC(=O)[C@H](CO)NC(=O)[C@H](Cc3cccc(C(=O)O)c3)NC(=O)[C@H](CC(=O)O)NC1=O)NC(=O)[C@H](CC(C)(C)C)NC(=O)[C@H](CC(=O)O)NC2=O` (stereo partly drawn) [I-2195, Ac-PL3-Asp-Npg-B5-Asp-3COOHF-Ser-Ala-Phe-Leu-PyrS2-3Thi-BztA-Npg-NH2] were 0.062 µM and 21 µM.
The corresponding values for `CC(=O)N1CCC[C@]12CC=CCCCC1(CCCC=CCCCOC(=O)N3CC[C@@](C(=O)N[C@@H](Cc4ccsc4)C(=O)N[C@@H](Cc4csc5ccccc45)C(=O)N[C@@H](CO)C(N)=O)(C3)NC(=O)[C@H](CC(C)C)NC(=O)[C@H](Cc3ccccc3)NC(=O)[C@H](C)NC(=O)[C@H](C)NC(=O)[C@H](Cc3ccc(F)c(C(=O)O)c3)NC(=O)[C@H](CC(=O)O)NC1=O)NC(=O)[C@H](CC(C)(C)C)NC(=O)[C@H](CC(=O)O)NC2=O` (stereo partly drawn) [I-2202, Ac-PL3-Asp-Npg-B5-Asp-4F3COOHF-Ala-Ala-Phe-Leu-PyrS2-3Thi-BztA-Ser-NH2] are 0.011 µM and 5 µM.
For the compound `CC(=O)N1CCC[C@]12CC=CCCCC1(CCCC=CCCCOC(=O)N3CC[C@@](C(=O)N[C@@H](Cc4ccccc4Cl)C(=O)N[C@@H](Cc4csc5ccccc45)C(=O)N[C@@H](CCC(N)=O)C(N)=O)(C3)NC(=O)[C@H](CC(C)C)NC(=O)[C@H](Cc3ccccc3)NC(=O)[C@H](C)NC(=O)[C@H](C)NC(=O)[C@H](Cc3ccc(F)c(C(=O)O)c3)NC(=O)[C@H](CC(=O)O)NC1=O)NC(=O)[C@H](CC(C)(C)C)NC(=O)[C@H](CC(=O)O)NC2=O` (stereo partly drawn) [I-2203, Ac-PL3-Asp-Npg-B5-Asp-4F3COOHF-Ala-Ala-Phe-Leu-PyrS2-2C1F-BztA-Gln-NH2], the IC50 amounted to 0.009 µM in assay [1] and 2.9 µM in assay [2].
Taken in the same sequence, the figures for `CC(=O)N1CCC[C@]12CC=CCCCC1(CCCC=CCCCOC(=O)N3CC[C@@](C(=O)N[C@@H](Cc4ccccc4Cl)C(=O)N[C@@H](Cc4csc5ccccc45)C(=O)N[C@@H](CCC(N)=O)C(N)=O)(C3)NC(=O)[C@H](CC(C)C)NC(=O)[C@H](Cc3ccccc3)NC(=O)[C@H](C)NC(=O)[C@H](C)NC(=O)[C@H](Cc3ccc(F)c(C(=O)O)c3)NC(=O)[C@H](CC(=O)O)NC1=O)NC(=O)[C@H](CC(C)(C)C)NC(=O)[C@H](CC(=O)O)NC2=O` (stereo partly drawn) [I-2204, Ac-PL3-Asp-Npg-B5-Asp-4F3COOHF-Ala-Ala-Phe-Leu-PyrS2-2C1F-BztA-Gln-NH2] were 0.01 µM and 3.3 µM.
Taken in the same sequence, the figures for `CC(=O)N1CCC[C@]12CC=CCCCC1(CCCC=CCCCOC(=O)N3CC[C@@](C(=O)N[C@@H](Cc4ccccc4Cl)C(=O)N[C@@H](Cc4csc5ccccc45)C(=O)N[C@@H](CO)C(N)=O)(C3)NC(=O)[C@H](CC(C)C)NC(=O)[C@H](Cc3ccccc3)NC(=O)[C@H](C)NC(=O)[C@H](C)NC(=O)[C@H](Cc3ccc(F)c(C(=O)O)c3)NC(=O)[C@H](CC(=O)O)NC1=O)NC(=O)[C@H](CC(C)(C)C)NC(=O)[C@H](CC(=O)O)NC2=O` (stereo partly drawn) [I-2205, Ac-PL3-Asp-Npg-B5-Asp-4F3COOHF-Ala-Ala-Phe-Leu-PyrS2-2C1F-BztA-Ser-NH2] were 0.018 µM and 3.2 µM.
As for `CC(=O)N1CCC[C@]12CC=CCCCC1(CCCC=CCCCOC(=O)N3CC[C@@](C(=O)N[C@@H](Cc4ccsc4)C(=O)N[C@@H](Cc4csc5ccccc45)C(=O)N[C@@H](C)C(N)=O)(C3)NC(=O)[C@H](CC(C)C)NC(=O)[C@H](Cc3ccccc3)NC(=O)[C@H](C)NC(=O)[C@H](CCC(N)=O)NC(=O)[C@H](Cc3ccc(F)c(C(=O)O)c3)NC(=O)[C@H](CC(=O)O)NC1=O)NC(=O)[C@H](CC(C)(C)C)NC(=O)[C@H](CC(=O)O)NC2=O` (stereo partly drawn) [I-2206, Ac-PL3-Asp-Npg-B5-Asp-4F3COOHF-Gln-Ala-Phe-Leu-PyrS2-3Thi-BztA-Ala-NH2], the concentration for half-maximal inhibition (IC50) in assay [1] stood at 0.007 µM; in assay [2], 7.1 µM.
As to `CC(=O)N1CCC[C@]12CC=CCCCC1(CCCC=CCCCOC(=O)N3CC[C@@](C(=O)N[C@@H](Cc4ccsc4)C(=O)N[C@@H](Cc4csc5ccccc45)C(=O)N[C@@H](C)C(N)=O)(C3)NC(=O)[C@H](CC(C)C)NC(=O)[C@H](Cc3ccccc3)NC(=O)[C@H](C)NC(=O)C(C)(C)NC(=O)[C@H](Cc3ccc(F)c(C(=O)O)c3)NC(=O)[C@H](CC(=O)O)NC1=O)NC(=O)[C@H](CC(C)(C)C)NC(=O)[C@H](CC(=O)O)NC2=O` (stereo partly drawn) [I-2207, Ac-PL3-Asp-Npg-B5-Asp-4F3COOHF-Aib-Ala-Phe-Leu-PyrS2-3Thi-BztA-Ala-NH2], the IC50 in assay [1] came to 0.016 µM; in assay [2] (absolute IC50), 3.2 µM.
The corresponding values for `CC(=O)N1CCC[C@]12CC=CCCCC1(CCCC=CCCCOC(=O)N3CC[C@@](C(=O)N[C@@H](Cc4ccsc4)C(=O)N[C@@H](Cc4csc5ccccc45)C(=O)N[C@@H](CCC(N)=O)C(N)=O)(C3)NC(=O)[C@H](CC(C)C)NC(=O)[C@H](Cc3ccccc3)NC(=O)[C@H](C)NC(=O)[C@H](C)NC(=O)[C@H](Cc3cc(C(=O)O)cc(C(F)(F)F)c3)NC(=O)[C@H](CC(=O)O)NC1=O)NC(=O)[C@H](CC(C)(C)C)NC(=O)[C@H](CC(=O)O)NC2=O` (stereo partly drawn) [I-2208, Ac-PL3-Asp-Npg-B5-Asp-5F3Me3COOHF-Ala-Ala-Phe-Leu-PyrS2-3Thi-BztA-Gln-NH2] are 0.027 µM and 5.7 µM.
Taken in the same sequence, the figures for `CC(=O)N1CCC[C@]12CC=CCCCC1(CCCC=CCCCOC(=O)N3CC[C@@](C(=O)N[C@@H](Cc4ccsc4)C(=O)N[C@@H](Cc4csc5ccccc45)C(=O)N[C@@H](CO)C(N)=O)(C3)NC(=O)[C@H](CC(C)C)NC(=O)[C@H](Cc3ccccc3)NC(=O)[C@H](C)NC(=O)[C@H](C)NC(=O)[C@H](Cc3cc(C(=O)O)cc(C(F)(F)F)c3)NC(=O)[C@H](CC(=O)O)NC1=O)NC(=O)[C@H](CC(C)(C)C)NC(=O)[C@H](CC(=O)O)NC2=O` (stereo partly drawn) [I-2209, Ac-PL3-Asp-Npg-B5-Asp-5F3Me3COOHF-Ala-Ala-Phe-Leu-PyrS2-3Thi-BztA-Ser-NH2] were 0.05 µM and 18.6 µM.
Taken in the same sequence, the figures for `CC(=O)N1CCC[C@]12CC=CCCCC1(CCCC=CCCCOC(=O)N3CC[C@@](C(=O)N[C@@H](Cc4ccccc4Cl)C(=O)N[C@@H](Cc4csc5ccccc45)C(=O)N[C@@H](CO)C(N)=O)(C3)NC(=O)[C@H](CC(C)C)NC(=O)[C@H](Cc3ccccc3)NC(=O)[C@H](C)NC(=O)[C@H](C)NC(=O)[C@H](Cc3cc(C(=O)O)cc(C(F)(F)F)c3)NC(=O)[C@H](CC(=O)O)NC1=O)NC(=O)[C@H](CC(C)(C)C)NC(=O)[C@H](CC(=O)O)NC2=O` (stereo partly drawn) [I-2210, Ac-PL3-Asp-Npg-B5-Asp-5F3Me3COOHF-Ala-Ala-Phe-Leu-PyrS2-2C1F-BztA-Ser-NH2] were 0.128 µM and 12.4 µM.
